We go through 4 molecules from PMC8807399, “Synthesis, Characterization, and in vivo Evaluation of a Novel Potent Autotaxin-Inhibitor” (Frontiers in Pharmacology, 2022).

In brackets after ≈: the same amount, converted by molar mass.

For one series, the target named is T1, human ATX (Homo sapiens, UniProt Q13822).
T1 construct: made in house
Briefly: Autotaxin inhibition assay (Amplex-Red). Conditions: ATX 3 nM, LPC 18:1 30 μM, read-out: hATX IC50. Type of series: biochemical. As for the experimental part: Plates were sealed and incubated for 5 min. The final assay concentrations were ATX 3 nM, choline oxidase 2 U/ml, horseradish peroxidase 4 U/ml, LPC 18:1 30 μM, Amplex Red 50 μM, and DMSO 2%.

The nature of series [1]: Lipophilicity (LogD, octanol/buffer). The note with it: 1-octanol / 25 mM phosphate buffer; pH 7.4, octanol/25 mM phosphate buffer. The format is physicochemical. The procedure:
The experiment started with the accurate coating of the hydrophobic layer (0.45 µm PVDF membranes), which was fixed on the bottom of each DIFI©-tube (Weidmann Medical Technology AG, Rapperswil, Switzerland). The coated membranes were then connected to a 96-well plate which has been prefilled with exactly 150 µl of the selected aqueous buffer solution (25 mM phosphate buffer, pH 7.4). The buffer solution contains already the compound of interest with a maximum starting concentration of 85 µM. To expand the measurement range down to logD = −0.5 and up to logD = +4, it is necessary to carry out the procedure at two different octanol/water ratios: One with an excess of octanol for hydrophilic compounds (logD < 1) and one with a low volume of octanol for the lipophilic compounds (logD > 1). Therefore, parts of the DIFI©-tubes were filled with 15 µl 1-octanol and another part with 1 µl 1-octanol. The resulting sandwich guarantees that the membrane was completely dipped in the buffer solution. The plate was then sealed and shaken for 12 h at room temperature (23°C). During this time, the substance is distributed between the layer, the octanol, and the buffer solution. After having reached a distribution equilibrium, the DIFI©-tubes were easily disassembled from the top of the 96-well plate, so that the remaining sample concentration in the aqueous phase could be analyzed by LC/MS.

A short description of the next series: HT-solubility assay. The format is physicochemical. Conditions: aqueous buffer, thermodynamic from solid; phosphate buffer pH 6.5. As for the experimental part:
This assay was performed on a TECAN station starting from 10 mM DMSO stock solutions of the test compounds. Two aliquots of the test compound were dried and dissolved in phosphate buffer at pH 6.5. Sonication supports optimal re-solubilization. The solutions were then filtered and diluted (3 different dilution levels for each compound) followed by quantification of the dissolved material with Rapid-Fire MS. Quantification was performed for each test compound with a 6-point calibration curve prepared with the same DMSO starting solution.

Series [2] can be described thus: In vitro microsomal stability, human. The note with it: human microsomes, 1 µM; value of 10 = low clearance, essentially below detection limit. Type of series: in vitro ADME. As for the experimental part: (§1) Incubations of a test compound at a concentration of 1 µM with microsomes (0.5 mg/ml) from the appropriate species (human, mouse, or rat) plus cofactor NADPH were performed in 96-well plates at 37°C on a TECAN automated liquid handling system (Tecan Group Ltd., Männedorf, Switzerland). After pre-incubation of the test compound with the microsomes for 10 min, the enzymatic reaction was started by the addition of cofactors. Aliquots of the incubations are removed at 1, 3, 6, 9, 15, 25, 35, and 45 min and are then quenched with 1:3 (v/v) acetonitrile containing internal standards. Samples were then cooled and centrifuged before analysis of the supernatant by LC-MS/MS. Logarithmic Peak area ratios (test compound peak area/internal standard peak area) were plotted against incubation time and a linear fit made to the data with emphasis upon the initial rate of compound disappearance. The slope of the fit was then used to calculate the intrinsic clearance: Clint (µL/min/mg protein) = −slope (min-1) * 1,000/[protein concentration (mg/ml)].

Series [3] can be described thus: In vitro microsomal stability, mouse. Conditions: mouse microsomes, 1 µM; value of 10 = low clearance, essentially below detection limit. The format is in vitro ADME. As for the experimental part:
as §1

Series [4] can be described thus: In vitro microsomal stability, rat. The format is in vitro ADME. The note with it: rat microsomes, 1 µM; value of 10 = low clearance, essentially below detection limit. As for the experimental part: as §1
A short description of series [5]: Glutathione addition screening. Conditions: human liver microsomes + NADPH + GSH. Type of series: in vitro ADME. As for the experimental part: All sample handling was performed based on a 96-well plate format using an automated pipetting system. The test compounds, positive controls (diclofenac, troglitazone, nefazodone, 4-[[1-(4-fluorophenyl)-2-methyl-1H-imidazol-4-yl]ethynyl]-2-methylpyridine) and solvent control (DMSO) were incubated with human liver microsomes supplemented with NADPH and reduced GSH. Stable GSH conjugates whose production can be assumed to be the result of chemically reactive metabolites were detected using a quadrupole time of flight mass spectrometer run in untargeted full scan accurate mass MSE mode (Waters Xevo G1 QTOFMSE; Waters GmbH, Eschborn, Germany). This generic GSH adduct detection method and the assay workflow are taking advantage of the specific fragmentation behavior of the peptide moiety upon collision induced dissociation of GSH adducts and so are largely independent of the conjugate (“X”) itself.

The next series can be described thus: Single dose PK in rats. Conditions: rat; for AUC(0-inf) / half-life / clearance / Vd / Cmax / Tmax: plasma; for clearance: read-out: CLp; for Vd: read-out: Vdss. Type of series: in vivo. The procedure: Exposures in animals treated with ATX-inhibitors were determined from K2EDTA treated plasma by LC-MS/MS at different time points. 25 µL of plasma was used for a single concentration determination. Concentration/time profiles were analyzed with MS Excel (Microsoft Corporation, Redmond, WA, United States).
For PK experiments for 7, 13, 14, and 15, respectively, animals were treated either iv or po and exposures were determined at different time points after compound administration. Suitable formulations for 13 were, for example, NMP:Tris buffer pH 8.5 (30%/70%) for iv administration with a nominal drug concentration of 1 mg/ml (dose 2 mg/kg) and a suspension in NMP:gelatine/NaCl (10%/90%) for po administration with a nominal drug concentration of 2.5 mg/ml (dose 10 mg/kg). PK parameters in Table 2 were estimated from the concentration time profiles using Phoenix WinNonlin software (Certara, Princeton, NJ, United States).

Series [6] in a line: Artificial membrane permeability assay. The format is in vitro ADME. The note with it: PAMPA, read-out: Permeability Pe. The procedure:
The assay was performed in an automated fashion on 96-well microplates. The permeation of drugs was measured using a “sandwich” construction: A filter-plate was coated with phospholipids (membrane) and placed into a donor compartment containing a compound/buffer solution. Finally, the top of filter-plate was filled with buffer solution (acceptor). Donor concentration was measured at t-start (reference) and compared with the donor and acceptor concentration after a certain time (t-end) to calculate the extent of passage of the compound through the membrane. The main readout of the assay was the permeability value Pe expressed in 10^–6 * cm/s. Secondary readouts determined were the amount of compound in the donor and acceptor compartments as well as the retention in the membrane. Depending on the permeation rate and the membrane retention the compounds were classified as low (Pe < 0.2 and membrane < 20%) or medium and high (Pe ≥ 0.2 or Pe < 0.2 and membrane ≥ 20%). Each sample was measured in triplicate and a standard deviation was determined for the permeation constant Pe.
In general terms: PAMPA measures passive passage across an artificial lipid membrane.

The IC50 is the concentration that gives 50% inhibition. The logD is lipophilicity at a set pH, counting ionised and neutral species. A lower logD goes with lower lipophilicity. Usually solubility stands for the dissolved amount per volume that the medium holds. A lower solubility goes with little dissolved substance. In general, AUC(0-inf) refers to total exposure, with the tail of the curve extrapolated. Read a high AUC(0-inf) as more exposure. Usually half-life stands for the time needed for the level to fall by half in the phase considered. A higher half-life goes with slow loss. By Cmax is commonly meant the highest concentration seen after dosing. The Tmax is the time from dosing to the highest level.

Regarding `O=C(OCc1cc(Cl)cc(Cl)c1)N1C[C@@H]2CN(C(=O)c3ccc4[nH]nnc4c3)C[C@H]2C1` [Compound 7, (3aS,6aS)-5-(1H-Benzotriazole-5-carbonyl)-hexahydro-pyrrolo [3,4-c]pyrrole-2-carboxylic acid 3,5-dichloro-benzyl ester], at human ATX, the 50% inhibitory concentration (IC50) was determined as 4 nM. Also, the logD at 12 h in [1] is 3.1. The solubility in “HT-solubility assay” is 9 µg/mL (≈ 19.6 µM). The “Mic CL h” value in series [2] was determined as 16 µL/m/mg prot. In series [3], the “Mic CL m” value worked out at 17 µL/m/mg prot. In [4], the “Mic CL r” value came out at 10 µL/m/mg prot. In addition, the GSH adducts entry in series [5] is given as “pos”. For the same molecule, in “Single dose PK in rats” (iv bolus, 3 mg/kg), the total exposure AUC(0-inf) was found to be 2140 ng·h/mL, the half-life was 48 min, the clearance worked out at 23 mL/min/kg and the Vd worked out at 1.3 L/kg. In “Single dose PK in rats” (oral gavage, 20 mg/kg), the AUC(0-inf) turned out to be 7900 ng·h/mL, the Cmax was determined as 2500 ng/mL, the time of peak concentration (Tmax) was 15 min and the half-life is 96 min. The “Oral F” value in “Single dose PK in rats” (oral gavage, 20 mg/kg) is 54%.
On to `CS(=O)(=O)c1cc(Cl)cc(COC(=O)N2C[C@@H]3CN(C(=O)c4ccc5[nH]nnc5c4)C[C@H]3C2)c1` [Compound 15, (3aS,6aS)-5-(1H-Benzotriazole-5-carbonyl)-hexahydro-pyrrolo[3,4-c]pyrrole-2-carboxylic acid 3-chloro-5-methanesulfonyl-benzyl ester], for which the IC50 on human ATX was 8 nM. The same molecule registered a logD at 12 h in [1] of 2. The solubility in “HT-solubility assay” is 190 µg/mL (≈ 377 µM). For the same molecule, the “Mic CL h” value in series [2] is 10/10/na µL/m/mg prot. For the same molecule, the “Mic CL m” value in [3] is on record as 10/10/na µL/m/mg prot. In series [5], the GSH adducts entry is reported as “Neg”. The Papp in series [6] came to 0.4 ×10⁻⁶ cm/s. Besides, in the series “Single dose PK in rats” (iv bolus, 3 mg/kg), the AUC(0-inf) amounted to 321 ng·h/mL, the half-life is 21 min, the clearance was determined as 156 mL/min/kg and the Vd was determined as 1.7 L/kg. Also, in the series “Single dose PK in rats” (oral gavage, 30 mg/kg), the AUC(0-inf) was 30 ng·h/mL, the peak level (Cmax) was 18 ng/mL, the time of peak concentration (Tmax) was 15 min and the half-life is 114 min. The “Oral F” value in the series “Single dose PK in rats” (oral gavage, 30 mg/kg) came to 1.1%.
On to `O=C(CCc1ccc(OC(F)(F)F)cc1)N1C[C@@H]2CN(C(=O)c3ccc4[nH]nnc4c3)C[C@H]2C1` [Compound 14, 1-[(3aR,6aR)-5-(1H-benzotriazole-5-carbonyl)-hexahydro-pyrrolo[3,4-c]pyrrol-2-yl]-3-(4-trifluoromethoxy-phenyl)-propan-1-one], for which, on human ATX, the half-maximal inhibitory concentration (IC50) is 6 nM. In series [1], this molecule had a log distribution coefficient (logD) at 12 h of 2.5. The molecule also displayed a solubility in the series “HT-solubility assay” of 46 µg/mL (≈ 97.2 µM). In addition, in [2], the “Mic CL h” value is 10 µL/m/mg prot. Further, the “Mic CL m” value in [3] worked out at 27 µL/m/mg prot. In series [4], the “Mic CL r” value came to 40 µL/m/mg prot. The GSH adducts entry in [5] is recorded as “Neg”. The Papp in series [6] was 2.7 ×10⁻⁶ cm/s. In “Single dose PK in rats” (iv bolus, 3 mg/kg), the area under the curve AUC(0-inf) came out at 1070 ng·h/mL, the half-life is 78 min, the clearance was determined as 47 mL/min/kg and the Vd came to 0.9 L/kg. For the same molecule, in “Single dose PK in rats” (oral gavage, 30 mg/kg), the total exposure AUC(0-inf) turned out to be 660 ng·h/mL, the maximum concentration (Cmax) amounted to 130 ng/mL, the time to peak (Tmax) came out at 30 min and the half-life is 228 min. Further, the “Oral F” value in the series “Single dose PK in rats” (oral gavage, 30 mg/kg) stood at 6%.
As to `O=C(COc1ccc(OC(F)(F)F)cc1)N1C[C@@H]2CN(C(=O)c3ccc4[nH]nnc4c3)C[C@H]2C1` [Compound 12, 1-[(3aS,6aS)-5-(1H-Benzotriazole-5-carbonyl)-hexahydro-pyrrolo[3,4-c]pyrrol-2-yl]-2-(4-trifluoromethoxy-phenoxy)-ethanone], at human ATX, the IC50 was determined as 137 nM. This molecule gave a logD at 12 h in [1] of 3.2. Also, the solubility in “HT-solubility assay” amounted to 8 µg/mL (≈ 16.8 µM). The “Mic CL h” value in [2] was 10/na/10 µL/m/mg prot. Further, the “Mic CL r” value in series [4] is on record as 10/na/10 µL/m/mg prot. The GSH adducts entry in series [5] was “Neg”. Further, the Papp in [6] was found to be 1.8 ×10⁻⁶ cm/s.
